Results: patent US8410068B2, “Compounds for the treatment or alleviation of edema, and methods for their use” (Index Pharmaceuticals AB, priority 2007, dated 2013)

Test system: OVA induced airway inflammation
Experiment: Ovalbumin (OVA) induced allergic airway inflammation, BAL fluid cell counts
Format: in vivo, Balb/c mice
Method: Mice were sensitized intraperitoneally with 200 μL OVA/aluminium hydroxide gel (1:3) on day 0 and 12 (see FIG. 6). OVA (chicken egg albumin grade V, Sigma, St. Louis, Mo.) was dissolved in saline and mixed with aluminium hydroxide gel to a concentration of 50 μg/mL by rotation at 4° C. for 3 h. On days 23, 26, 30 and 33 (see FIG. 6), mice were challenged in the lungs by inhalation of aerosolized OVA for 30 minutes using a Batelle exposure chamber. Aerosols were generated by a compressed-air nebulizer (Collison 6-jet) at airflow 7.4 L/min using a nebulizer concentration of 10 mg/mL OVA dissolved in PBS (Sigma, St Louis, Mo., USA). The control group with non-sensitized animals received no other treatment than aerosolized OVA at days 23, 26, 30 and 33.
In this OVA model (FIG. 6), a total of 4 oligonucleotides were tested, IDX9025, IDX9038, IDX9053 (Table 1, SEQ ID NO 2-4) and IDX0150 (Table 3, SEQ ID NO 11). The oligonucleotides were synthesized by biomers.net GmbH, Ulm, Germany and stored frozen at −20° C. The oligonucleotides were diluted with PBS to the working concentration (1,247 μg/μL) and kept at −20° C. until the first day of instillation, thereafter they were placed at 4° C.
In a first experiment, both prophylactic and therapeutic protocols were tested (see FIG. 6). The drug treatment consisted of intranasal instillations of IDX0150 (1,247 μg/μL, provided by InDex Pharmaceuticals AB, Stockholm, Sweden) on days 16 and 21 (prophylactic protocol), on days 30 and 33 (therapeutic protocol A) or on days 30 and 34 (therapeutic protocol B). The instillations in the therapeutic protocols (A & B) on days 30 and 33 were given 4 h after aerosol challenge. The second instillation in protocol B on day 34 was given 24 h after the last aerosol challenge. The drug was administered in 40 μL PBS giving a dose of ˜50 μg/mice (49.88 μg/mice). The two sensitized sham-treatment groups were instilled with PBS, the same total volume as for the treatment groups, according to either the prophylactic protocol (days 16 and 21) or to the therapeutic protocol A (days 30 and 33).
In a second experiment, since administration of IDX0150 in the first experiment using prophylactic protocol (FIG. 6) gave a significant reduction of airway inflammation (FIG. 7), three other substances were tested with the same protocol. The drug treatment consisted of intranasal instillations of IDX9025, IDX9038 and IDX9053 (Table 1) (1,247 μg/μL, provided by InDex Pharmaceuticals AB) on days 16 and 21 (see FIG. 6, prophylactic protocol). All substances were administered in 40 μL PBS giving a dose of ˜50 μg/mice (49.88 μg/mice). The two sensitized sham-treatment groups were instilled with PBS, the same total volume as for the treatment groups, according to the prophylactic protocol (days 16 and 21).
Mice were killed by cervical dislocation 42 h after the last OVA aerosol challenge. The trachea was cannulated with polyethylene tubing (Becton Dickinson, Sparks, Md., USA) and bronchoalveolar lavage (BAL) was performed using 4×1 mL aliquots of ice-cold Hank's balanced salt solution (HBSS) (Sigma, St Louis, Mo., USA). The BAL fluid was centrifuged (400 g, 10 min, 4° C.) and the BAL fluid cells were resuspended in 0.4 mL PBS. The total number of leukocytes counted using tryphan blue exclusion in a Barker chamber. Duplicate Cytospin (Cytospin 3, Shandon, Runcorn, UK) preparations of BAL fluid cells were stained with May Grünewald Giemsa for differential counts, using standard morphological criteria.
Statistical comparisons were performed using One-way analysis of variance (ANOVA) using Dunnett's post hoc correction to compare with sensitized PBS treated control mice (GraphPad Prism 3). Data are shown as mean±standard deviation. P<0.05 was considered significant.

G*G*A*ACAGTTCGTCCAT*G*G*C (phosphorothioate linkages, as printed in the source, key not given here) [IDX0150, oligonucleotide used as control; * = phosphorothioate modification]
migration of eosinophils into the BAL fluid (prophylactic protocol, 50 μg/animal intranasal on day 16 and 21, P<0.001): significantly reduce
migration of leukocytes into the BAL fluid (prophylactic protocol, 50 μg/animal intranasal on day 16 and 21, P<0.05): significantly reduce
effect on BAL fluid cells, therapeutic arm (therapeutic protocols, 50 μg intranasal, days 30 and 33 (A) or 30 and 34 (B)): no statistically proven effects
